Experimental data published in US6706663B2, “Herbicidal 3-heterocyclic substituted benzisothiazole and benzisoxazole compounds” (Wyeth, priority 2000, dated 2004).

Assays:
SETVI (Setaria viridis) [1] = assay: Postemergence herbicidal evaluation; assay type: in vivo, (L.) Beau
Method in brief: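 First, seedlings are raised in flats for about two weeks. Next, compound dispersed in 50/50 acetone/water with 0.5% TWEEN 20 is sprayed at 40 psi to deliver about 0.0040–1.000 kg/ha. Plants are then maintained in the greenhouse and rated 0-9 after four to five weeks.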

[2] = system: ECHORC (Echinochloa oryzoides); assay: Flooded paddy, preemergence weed control; assay type: in vivo, Echinochloa oryzoides (Ard.) Fritsch.; settings: rated 3-4 weeks after treatment, 0-9 rating scale
Method in brief: (§1)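 Ratings of 0-9 reflect visual comparison with a control for stand, vigor, deformity, size, chlorosis and overall look. Propagules were placed in shallow silt loam (top 0.5 cm) under a continuous 1.5–3 cm flood and grown in the greenhouse.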

[3] = system: CASOB (Cassia obtusifolia); assay: Preemergence herbicidal evaluation; assay type: in vivo, L.; settings: preemergence, rated 4-5 weeks after treatment
Method in brief: (§2)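 Seeds planted in potting soil cups and sprayed preemergence with aqueous acetone compound solution. Greenhouse-grown; rated 4–5 weeks after treatment on a 0-9 visual scale (stand, vigor, malformation, size, chlorosis, appearance) versus control.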

[4] = system: CHEAL (Chenopodium album); assay: Preemergence herbicidal evaluation; assay type: in vivo, L.; settings: preemergence, rated 4-5 weeks after treatment
Method in brief: as §2

[5] = system: AMBEL (Ambrosia artemisifolia); assay: Preemergence herbicidal evaluation; assay type: in vivo, L.; settings: preemergence, rated 4-5 weeks after treatment
Method in brief: as §2

ORYSAT (Rice, Tebonnet) [6] = assay: Postemergence herbicidal evaluation; assay type: in vivo, Oryza sativa, (L.) Tebonnet
Method in brief: (§3)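 Seedlings grown about two weeks in flats, sprayed, then kept under standard greenhouse care. Rated visually 4–5 weeks after treatment on a 0–9 scale (stand, vigour, malformation, size, chlorosis, overall appearance) relative to untreated control; repeat tests averaged.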

[7] = system: MOOVA (Monochoria vaginalis); assay: Flooded paddy, preemergence weed control; assay type: in vivo, Presl.; settings: rated 3-4 weeks after treatment, 0-9 rating scale
Method in brief: as §1

[8] = system: ECHCG (Echinochloa crus-galli); assay: Preemergence herbicidal evaluation; assay type: in vivo, (L.) Beau; settings: preemergence, rated 4-5 weeks after treatment
Method in brief: as §2

SETVI (Setaria viridis) [9] = assay: Preemergence herbicidal evaluation; assay type: in vivo, (L.) Beau; settings: preemergence, rated 4-5 weeks after treatment
Method in brief: as §2

ZEAMX (Corn, Field) = assay: Postemergence herbicidal evaluation; assay type: in vivo, Zea mays, L.
Method in brief: as §3

GALAP (Galium aparine) = assay: Preemergence herbicidal evaluation; assay type: in vivo; settings: preemergence, rated 4-5 weeks after treatment
Method in brief: as §2

[10] = system: TRZAWR (Wheat, Winter, cv Riband); assay: Postemergence herbicidal evaluation; assay type: in vivo, Triticum aestivum
Method in brief: as §3

[11] = system: CYPSE (Cyperus serotinus); assay: Flooded paddy, preemergence weed control; assay type: in vivo, Rottb.; settings: rated 3-4 weeks after treatment, 0-9 rating scale
Method in brief: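 Seeds or propagules were planted 0.5 cm deep in silt loam and flooded to 1.5–3 cm. Compounds in 50/50 v/v aqueous/acetone were pipetted into the flood water at about 0.0080 to 0.1250 kg/ha. After 3–4 weeks in the greenhouse, effect was rated visually on a 0–9 scale versus untreated control.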

[12] = system: ABUTH (Abutilon theophrasti); assay: Preemergence herbicidal evaluation; assay type: in vivo, Medic.; settings: preemergence, rated 4-5 weeks after treatment
[13] = system: TRZAWR (Wheat, Winter, cv Riband); assay: Preemergence herbicidal evaluation; assay type: in vivo, Triticum aestivum; settings: preemergence, rated 4-5 weeks after treatment
Method in brief: as §2

ORYSAT (Rice, Tebonnet) [14] = assay: Preemergence herbicidal evaluation; assay type: in vivo, Oryza sativa, (L.) Tebonnet; settings: preemergence, rated 4-5 weeks after treatment
[15] = system: GLXMAW (Soybean, Williams); assay: Postemergence herbicidal evaluation; assay type: in vivo, Glycine max, (L.) Merr. cv Williams
Method in brief: as §3

[16] = system: ECHCG (Echinochloa crus-galli); assay: Postemergence herbicidal evaluation; assay type: in vivo, (L.) Beau
Method in brief: as §3

[17] = system: IPOHE (Ipomoea hederacea); assay: Postemergence herbicidal evaluation; assay type: in vivo, (L.) Jacq.
Method in brief: as §3

Cn1c(C(F)(F)F)cc(=O)n(-c2ccc3snc(C(SCCO)SCCO)c3c2)c1=O [Compound 33, 1,2-benzisothiazole-3-carboxaldehyde, 5-[3,6-dihydro-3-methyl-2,6-dioxo-4-(trifluoromethyl)-1(2H)-pyrimidinyl]-, 3-[bis(2-hydroxyethyl)dithioacetal]]
8.0: AMBEL preemergence herbicidal rating ([5]; Rate 0.2500 kg/ha)
9.0: CHEAL preemergence herbicidal rating ([4]; Rate 0.2500 kg/ha) | ABUTH preemergence herbicidal rating ([12]; Rate 0.1250 kg/ha) | ABUTH preemergence herbicidal rating ([12]; Rate 0.2500 kg/ha) | Postemergence herbicidal rating, IPOHE ([17]; rate 0.0620 kg/ha)
4.0: Postemergence herbicidal rating, SETVI (SETVI (Setaria viridis) [1]; rate 0.0620 kg/ha) | CHEAL preemergence herbicidal rating ([4]; Rate 0.0620 kg/ha) | AMBEL preemergence herbicidal rating ([5]; Rate 0.1250 kg/ha) | Postemergence herbicidal rating, ORYSAT (ORYSAT (Rice, Tebonnet) [6]; rate 0.0320 kg/ha) | herbicidal rating, MOOVA ([7]; rate 0.1250 kg/ha) | Postemergence herbicidal rating, TRZAWR ([10]; rate 0.0320 kg/ha) | TRZAWR preemergence herbicidal rating ([13]; Rate 0.2500 kg/ha)
0.0: herbicidal rating, ECHORC ([2]; rate 0.0320 kg/ha) | CASOB preemergence herbicidal rating ([3]; Rate 0.0620 kg/ha) | CASOB preemergence herbicidal rating ([3]; Rate 0.1250 kg/ha) | CASOB preemergence herbicidal rating ([3]; Rate 0.2500 kg/ha) | herbicidal rating, MOOVA ([7]; rate 0.0320 kg/ha) | ECHCG preemergence herbicidal rating ([8]; Rate 0.0620 kg/ha) | ECHCG preemergence herbicidal rating ([8]; Rate 0.1250 kg/ha) | SETVI preemergence herbicidal rating (SETVI (Setaria viridis) [9]; Rate 0.0620 kg/ha) | SETVI preemergence herbicidal rating (SETVI (Setaria viridis) [9]; Rate 0.1250 kg/ha) | herbicidal rating, CYPSE ([11]; rate 0.0320 kg/ha) | herbicidal rating, CYPSE ([11]; rate 0.1250 kg/ha) | TRZAWR preemergence herbicidal rating ([13]; Rate 0.0620 kg/ha) | ORYSAT preemergence herbicidal rating (ORYSAT (Rice, Tebonnet) [14]; Rate 0.0620 kg/ha)
7.0: CHEAL preemergence herbicidal rating ([4]; Rate 0.1250 kg/ha) | GALAP preemergence herbicidal rating (GALAP (Galium aparine); Rate 0.2500 kg/ha) | Postemergence herbicidal rating, IPOHE ([17]; rate 0.0320 kg/ha)
5.0: Postemergence herbicidal rating, ORYSAT (ORYSAT (Rice, Tebonnet) [6]; rate 0.0620 kg/ha) | ECHCG preemergence herbicidal rating ([8]; Rate 0.2500 kg/ha) | Postemergence herbicidal rating, ZEAMX (ZEAMX (Corn, Field); rate 0.0320 kg/ha) | Postemergence herbicidal rating, TRZAWR ([10]; rate 0.0620 kg/ha) | Postemergence herbicidal rating, GLXMAW ([15]; rate 0.0320 kg/ha)
2.0: herbicidal rating, ECHORC ([2]; rate 0.1250 kg/ha) | AMBEL preemergence herbicidal rating ([5]; Rate 0.0620 kg/ha) | GALAP preemergence herbicidal rating (GALAP (Galium aparine); Rate 0.1250 kg/ha) | ABUTH preemergence herbicidal rating ([12]; Rate 0.0620 kg/ha)
3.0: GALAP preemergence herbicidal rating (GALAP (Galium aparine); Rate 0.0620 kg/ha) | ORYSAT preemergence herbicidal rating (ORYSAT (Rice, Tebonnet) [14]; Rate 0.1250 kg/ha) | Postemergence herbicidal rating, ECHCG ([16]; rate 0.0620 kg/ha)
5.5: Postemergence herbicidal rating, ZEAMX (ZEAMX (Corn, Field); rate 0.0620 kg/ha) | Postemergence herbicidal rating, GLXMAW ([15]; rate 0.0620 kg/ha)
6.0: SETVI preemergence herbicidal rating (SETVI (Setaria viridis) [9]; Rate 0.2500 kg/ha) | ORYSAT preemergence herbicidal rating (ORYSAT (Rice, Tebonnet) [14]; Rate 0.2500 kg/ha)
1.0: Postemergence herbicidal rating, SETVI (SETVI (Setaria viridis) [1]; rate 0.0320 kg/ha) | TRZAWR preemergence herbicidal rating ([13]; Rate 0.1250 kg/ha) | Postemergence herbicidal rating, ECHCG ([16]; rate 0.0320 kg/ha)
